Ends that are not written are not given here.
Experiment: Detection of KDIP and truncated forms in tumour and liver tissue by LC-MS/MS (MRM) after intravenous injection
Assay type: in vivo, mouse
Settings: tissues collected 20 min after fifth intravenous injection of KDIP 5 mg/kg, below the limit of detection
Procedure: At 20 min after fifth intravenous injection of KDIP, tumour and liver tissues were collected, immediately frozen using liquid nitrogen and ground with a pestle and mortar. One part of resultant powder by weight was homogenized with two parts of lysis buffer containing 8‐M urea, 25‐mM Tris–HCl (pH 8.5) by volume and was placed in Eppendorf tubes. This lysate was sonicated three times for 2 s with 2‐s intervals of rest at 20% amplitude on ice. Insoluble debris was removed by obtaining supernatant after centrifugation at 14 000 g, 4°C for 15 min.
Peptide extraction from serum or tissue lysate was performed by solid‐phase extraction using Oasis HLB Cartridge 1‐cm^3 (30 mg). HLB cartridges were conditioned using ACN (1 ml) and 50% ACN, .5% FA (1 ml), followed by equilibration using .5% FA (2 ml). A volume of 10‐μl serum and 20 μl of tissue lysate were added by .5% FA to be 1 ml and were loaded on equilibrated cartridges. Cartridges were washed with .5% FA (3 ml), and then peptide was eluted by 50% ACN, .5% FA (500 μl). Eluates were vacuum‐dried using Speed‐Vac and were stored at −80°C until use. Dried samples were reconstituted in .5% FA 50 and 5 μl of sample was loaded on column for LC–MS/MS analysis.
Each sample was analysed using an Agilent 1100 Series high‐performance liquid chromatography pump (Agilent Technologies, USA) coupled to an LTQ linear ion trap mass spectrometer (Thermo Finnigan, USA). Separation of peptide was carried out on a homemade C18‐fused silica column (100‐μm internal diameter) with nano‐electrospray ionization interface. […] Peptide was quantified by multiple reaction monitoring (MRM) in positive ion mode, with a spray voltage of 2.3 kV. […] Furthermore, truncated forms ([…], […]) of KDIP that were detected during stability test were also analysed by following transitions: 468.5 → 404.8 (b16 ^+5), 468.5 → 444.85 (b18 ^+5), 468.5 → 505.7 (b16 ^+4), 468.5 → 551.35 (b18 + H2O^+4), 468.5 → 555.7 (b18 ^+4), 528.45 → 448.85 (b14 ^+4), 528.45 → 499.0 (b16 ^+4), 528.45 → 598.15 (b14 ^+3), 528.45 → 659.25 (b16 + H2O^+3) and 528.45 → 664.95 (b16 ^+3). […]

detection in regressed tumour tissues or liver by mass spectrometry: not detected
Sequence: YARVRRRGPRRWRLVSDEAV [KDIP]

From article PMC9296036, “A peptide interfering with the dimerization of oncogenic KITENIN protein and its stability suppresses colorectal tumour progression” (Clinical and Translational Medicine, 2022)
